# Columns and labels:
# EGFR = target: T1, EGFR (Homo sapiens, UniProt P00533, DEL746-750); test: EGFR PROTAC In Cell Western assay in HCC827; format: cell-based; conditions: HCC827, EGFR degradation, 16 hours of incubation
# T1 construct: host or cells: HCC827
# Source text: Test Example 2 EGFR PROTAC in Cell Western Assay
# HCC827 cell culture medium was purchased from Corning. Cell line HCC827 was purchased from BeNa Culture Collection; EGF Receptor (D38B1) XP Rabbit mAb antibody and β-Actin (8H10D10) Mouse mAb antibody were from CST. IRDye 800CW, IRDye 680RD, and Intercept blocking solution (PBS) were purchased from Licor. Triton-100 was purchased from sigma, and 96-well black cell culture imaging microtiter plates were purchased from Agilent.
# 1) HCC827 cells were cell counted and cells were inoculated into 96-well black cell culture imaging microtiter plates at a density of 40,000 cells per well, with 100 μl per well. The plate was incubated overnight in a CO2 incubator.
# 2) Day 1: A gradient dilution of the compound to be tested was added to the cells of the culture plate (with a starting concentration of […], 9 concentrations, a dilution ratio of 1:3, 2 duplicate wells), with a final concentration of DMSO being 0.5%, and a blank control of DMSO without compound. The plate was placed in the cell culture incubator for a final 16 hours of incubation.
# 3) The culture medium was removed from the 96 wells with a pipette and the residual medium was washed with […] of PBS per well on a shaker for 5 min. After the removal of PBS, cells were quickly fixed by adding 150 μl of fresh fixation buffer (3.7% paraformaldehyde) and incubated for 20 min at room temperature.
# 4) The fixation buffer was removed and […] of Triton elution buffer (0.3% Triton-100) was added to wash for four times on a shaker for 5 minutes each time.
# 5)[…] LI-COR Odyssey blocking solution was added and the cells were incubated for 1.5 hours at room temperature with slow shaking on a shaker.
# 6) To block the samples, a primary antibody against EGFR and Actin were prepared using Antibody Dilution Buffer at a ratio of 1:300. The blocking solution was poured out and the diluted primary antibody was added (at a total volume of 50 μl/per well). The cell plate was covered and incubated at 4° C. overnight.
# 7) The cell plate was washed four times with PBS+Triton X-100 for 5 minutes each time.
# 8) Fluorescently labeled secondary antibodies IRDye® 680RD and IRDye® 800CW were diluted with Antibody Dilution Buffer (with a ratio of 1:600, at a total volume of 50 μl/well) and then incubated for one hour at room temperature, protected from light.
# 9) The cell plate was washed four times with PBS+Triton X-100 for 5 minutes each time.
# After pipetting the PBS thoroughly, the plate was inverted and imaged on a Burroughs imager. A multiple exposure program was selected, IRDye 680RD Blot was chosen for the first channel, and IRDye 800CW Blot was chosen for the second channel. […] The blank group was the DMSO group, EGFR/Actin was calculated as the EGFR value of the corresponding sample wells, and the degradation rate=100-100*EGFR signal/DMSO signal. The DC50 and Dmax of the degraded EGFR proteins were calculated by fitting curves using the Prism software, 3-parameter method.
# [1] = tested on: H1975 (EGFR L858R/T790M double mutation); test: Cell antiproliferative assay (CTG, 72 h), H1975; format: cell-based, human; conditions: Homo sapiens, NCI-H1975, 72 h
# How it was run: (§1)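 Viability by CTG luminescence after 72 h compound exposure, normalised between blank medium and 0.1% DMSO controls, with IC50 from fitted curves. Dosing in triplicate, top 10,000 nM, 4-fold dilutions, applied about 24 h after plating 1500-2500 cells per well.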
# [2] = tested on: HCC827 (exon 19 deletion mutation); test: Cell antiproliferative assay (CTG, 72 h), HCC827; format: cell-based, human; conditions: Homo sapiens, HCC827, 72 h
# How it was run: as §1
# [3] = tested on: PC-9 (EGFR exon 19 deletion); test: Cell antiproliferative assay (CTG, 72 h), PC-9; format: cell-based, human; conditions: Homo sapiens, PC-9, 72 h
# How it was run: as §1
# T1 sequence (P00533 with tags, fused parts or gaps DEL746-750): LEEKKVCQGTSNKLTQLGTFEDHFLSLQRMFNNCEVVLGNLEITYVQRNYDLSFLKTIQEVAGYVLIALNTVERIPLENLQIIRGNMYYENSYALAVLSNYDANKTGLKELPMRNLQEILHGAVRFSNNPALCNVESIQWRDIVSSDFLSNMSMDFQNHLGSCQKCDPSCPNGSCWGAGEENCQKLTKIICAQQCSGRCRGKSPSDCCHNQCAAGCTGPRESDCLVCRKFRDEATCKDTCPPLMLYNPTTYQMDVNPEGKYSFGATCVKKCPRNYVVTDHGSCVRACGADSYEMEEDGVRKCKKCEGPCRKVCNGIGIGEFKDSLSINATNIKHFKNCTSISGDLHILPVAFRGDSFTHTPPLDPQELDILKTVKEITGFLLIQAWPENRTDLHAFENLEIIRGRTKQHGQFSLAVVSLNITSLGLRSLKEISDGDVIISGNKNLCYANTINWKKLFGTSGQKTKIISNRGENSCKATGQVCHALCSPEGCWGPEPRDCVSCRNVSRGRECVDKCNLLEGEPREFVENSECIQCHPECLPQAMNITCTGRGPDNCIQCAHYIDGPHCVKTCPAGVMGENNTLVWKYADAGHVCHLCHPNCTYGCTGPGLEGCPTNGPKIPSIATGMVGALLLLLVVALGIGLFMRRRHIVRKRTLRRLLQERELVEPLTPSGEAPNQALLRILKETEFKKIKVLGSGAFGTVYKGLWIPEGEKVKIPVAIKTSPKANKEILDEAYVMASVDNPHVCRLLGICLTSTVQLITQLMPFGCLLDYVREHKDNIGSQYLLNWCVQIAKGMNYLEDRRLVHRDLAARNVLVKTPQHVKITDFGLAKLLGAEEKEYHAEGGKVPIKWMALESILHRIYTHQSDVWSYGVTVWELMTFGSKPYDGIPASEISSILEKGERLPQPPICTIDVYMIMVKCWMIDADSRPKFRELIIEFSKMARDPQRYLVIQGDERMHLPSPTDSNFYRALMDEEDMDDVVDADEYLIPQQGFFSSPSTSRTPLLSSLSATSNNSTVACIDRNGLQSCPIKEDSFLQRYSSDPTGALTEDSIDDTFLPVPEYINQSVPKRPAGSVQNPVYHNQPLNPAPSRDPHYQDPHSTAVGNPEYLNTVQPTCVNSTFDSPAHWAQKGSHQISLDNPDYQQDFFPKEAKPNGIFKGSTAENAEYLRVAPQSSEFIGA
SMILES,"Dmax (EGFR; HCC827, Table 4)","Dmax (EGFR; HCC827, Table 5)",DC50 (EGFR; Table 4),DC50 (EGFR; Table 5),"IC50 ([1]; Table 2, H1975 cells)","IC50 ([1]; Table 3, H1975 cells)","IC50 ([2]; Table 2, HCC827 cells)","IC50 ([2]; Table 3, HCC827 cells)","IC50 ([3]; Table 2, PC-9 cells)","IC50 ([3]; Table 3, PC-9 cells)"
COc1cc(N2CCN(C(=O)CN3CCC(c4ccc(NC5CCC(=O)NC5=O)cc4)CC3)CC2)ccc1Nc1ncc(Cl)c(Nc2ccccc2C(C)=O)n1 (stereo not drawn) [Compound T-12],70 to 100%,70.5%,10 to 100 nM,15.6 nM,10 to 100 nM,34.3 nM,100 to 1000 nM,110 nM,100 to 1000 nM,324 nM
COc1cc(N2CCN(C(=O)CN3CCC(c4ccc(NC5CCC(=O)NC5=O)cc4)CC3)CC2)ccc1Nc1ncc(Cl)c(Nc2ccccc2P(C)(C)=O)n1 (stereo not drawn) [Compound T-13],70 to 100%,,≤ 10 nM,,10 to 100 nM,,100 to 1000 nM,,100 to 1000 nM,
COc1cc(N2CCN(C(=O)CN3CCC(c4ccc(NC5CCC(=O)NC5=O)cc4)CC3)CC2)ccc1Nc1ncc(C(F)(F)F)c(Nc2ccccc2C(C)=O)n1 (stereo not drawn) [Compound T-47],50 to 70%,,10 to 100 nM,,10 to 100 nM,,10 to 100 nM,,100 to 1000 nM,
COc1cc(N2CCN(C(=O)CN3CCC(c4ccc(NC5CCC(=O)NC5=O)cc4)CC3)CC2)c(C)cc1Nc1ncc(Cl)c(Nc2ccccc2C(C)=O)n1 (stereo not drawn) [Compound T-57],50 to 70%,,10 to 100 nM,,10 to 100 nM,,100 to 1000 nM,,100 to 1000 nM,
COc1cc(N2CCN(C(=O)CN3CCC(c4ccc(NC5CCC(=O)NC5=O)cc4)CC3)CC2C)ccc1Nc1ncc(Cl)c(Nc2ccccc2C(C)=O)n1 (stereo not drawn) [Compound T-60],50 to 70%,,10 to 100 nM,,10 to 100 nM,,100 to 1000 nM,,100 to 1000 nM,
COc1cc(N2CCN(C(=O)CN3CCC(c4ccc(NC5CCC(=O)NC5=O)cc4)CC3)C(C)C2)ccc1Nc1ncc(Cl)c(Nc2ccccc2C(C)=O)n1 (stereo not drawn) [Compound T-63],50 to 70%,,100 to 1000 nM,,10 to 100 nM,,100 to 1000 nM,,100 to 1000 nM,
COc1cc(N2CC3(CN(C(=O)CN4CCC(c5ccc(NC6CCC(=O)NC6=O)cc5)CC4)C3)C2)ccc1Nc1ncc(Cl)c(Nc2ccccc2C(C)=O)n1 (stereo not drawn) [Compound T-66],< 50%,,10 to 100 nM,,10 to 100 nM,,100 to 1000 nM,,≥ 1000 nM,
COc1cc(N2CCN(C(=O)CN3CCN(c4ccc(NC5CCC(=O)NC5=O)cc4)CC3)CC2)ccc1Nc1ncc(Br)c(Nc2ccccc2C(C)=O)n1 (stereo not drawn) [Compound T-84],70 to 100%,,10 to 100 nM,,10 to 100 nM,,100 to 1000 nM,,100 to 1000 nM,
C=CC(=O)Nc1cc(Nc2ncc(Cl)c(Nc3ccccc3C(C)=O)n2)c(OC)cc1N1CCN(C(=O)CN2CCC(c3ccc(NC4CCC(=O)NC4=O)cc3)CC2)CC1 (stereo not drawn) [Compound T-91],50 to 70%,,10 to 100 nM,,10 to 100 nM,,10 to 100 nM,,100 to 1000 nM,
COc1cc(N2CCN(C(=O)CN3CCN(c4ccc(NC5CCC(=O)NC5=O)nc4)CC3)CC2)ccc1Nc1ncc(Cl)c(Nc2ccccc2C(C)=O)n1 (stereo not drawn) [Compound T-101],50 to 70%,,10 to 100 nM,,100 to 1000 nM,,100 to 1000 nM,,100 to 1000 nM,
COc1cc(N2CCC(N3CCN(C(=O)CN4CCC(c5ccc(NC6CCC(=O)NC6=O)cc5)CC4)CC3)CC2)ccc1Nc1ncc(Cl)c(Nc2ccccc2C(C)=O)n1 (stereo not drawn) [Compound T-121],50 to 70%,,100 to 1000 nM,,100 to 1000 nM,,100 to 1000 nM,,≥ 1000 nM,
COc1cc(N2CC3CC(C2)N3C(=O)CN2CCC(c3ccc(NC4CCC(=O)NC4=O)cc3)CC2)ccc1Nc1ncc(Cl)c(Nc2ccccc2C(C)=O)n1 (stereo not drawn) [Compound T-125],< 50%,,10 to 100 nM,,100 to 1000 nM,,100 to 1000 nM,,≥ 1000 nM,
COc1cc(N2CCC(N(C)C(=O)CN3CCC(c4ccc(NC5CCC(=O)NC5=O)cc4)CC3)CC2)ccc1Nc1ncc(C(F)(F)F)c(Nc2ccccc2C(C)=O)n1 (stereo not drawn) [Compound T-163],50 to 70%,,100 to 1000 nM,,10 to 100 nM,,100 to 1000 nM,,100 to 1000 nM,
COc1cc(N2CC(NC(=O)CN3CCC(c4ccc(NC5CCC(=O)NC5=O)cc4)CC3)C2)ccc1Nc1ncc(Cl)c(Nc2ccccc2C(C)=O)n1 (stereo not drawn) [Compound T-169],< 50%,,≥ 1000 nM,,100 to 1000 nM,,100 to 1000 nM,,100 to 1000 nM,
COc1cc(N2CC[C@H](N(C)C(=O)CN3CCC(c4ccc(NC5CCC(=O)NC5=O)cc4)CC3)C2)ccc1Nc1ncc(Cl)c(Nc2ccccc2C(C)=O)n1 (stereo partly drawn) [Compound T-172],< 50%,,10 to 100 nM,,100 to 1000 nM,,10 to 100 nM,,≥ 1000 nM,
COc1cc(N2CCN(CCN3CCC(c4ccc(NC5CCC(=O)NC5=O)cc4)CC3)CC2)ccc1Nc1ncc(Cl)c(Nc2ccccc2C(C)=O)n1 (stereo not drawn) [Compound T-182],50 to 70%,,10 to 100 nM,,10 to 100 nM,,100 to 1000 nM,,100 to 1000 nM,
CNC(=O)c1ccccc1Nc1nc(Nc2ccc(N3CCN(C(=O)CN4CCC(c5ccc(NC6CCC(=O)NC6=O)cc5)CC4)CC3)cc2OC)ncc1Cl (stereo not drawn) [Compound T-184],70 to 100%,70.8%,10 to 100 nM,10.2 nM,≤ 10 nM,7.72 nM,10 to 100 nM,14.2 nM,100 to 1000 nM,122 nM
CNC(=O)c1ccccc1Nc1nc(Nc2ccc(N3CCN(C(=O)CN4CCC(c5ccc(NC6CCC(=O)NC6=O)cc5)CC4)CC3)cc2OC)ncc1Br (stereo not drawn) [Compound T-185],70 to 100%,,≤ 10 nM,,≤ 10 nM,,10 to 100 nM,,100 to 1000 nM,
COc1cc(N2CCN(C(=O)CN3CCC(c4ccc(NC5CCC(=O)NC5=O)cc4)CC3)CC2)ccc1Nc1ncc(Cl)c(Nc2ccccc2C(=O)C(C)C)n1 (stereo not drawn) [Compound T-190],50 to 70%,,≥ 1000 nM,,10 to 100 nM,,100 to 1000 nM,,100 to 1000 nM,

# Source: US20250129086A1, “COMPOUND FOR DEGRADING EGFR PROTEIN AND USE THEREOF” (TYK MEDICINES, INC., priority 2021, published 2025)
